Experiment [1] concerns pancreatic islet cells from newborn rats. As to the kind of experiment: Beta cell proliferation in vitro (BrdU incorporation into DNA in insulin-positive cells). The format is cell-based. The protocol: In our efforts to identify beta cell growth factors we discovered that GLP-1 indeed could stimulate beta cell proliferation in vitro. The proliferation was measured as incorporation of the thymidine analogue 5-bromo-2-deoxyuridine (BrdU) into DNA in insulin-positive cells in pancreatic islet cells from newborn rats.
On the technique in general: Dividing cells build labelled thymidine or BrdU into new DNA.

Experiment [2] in a line: Oral Glucose Tolerance Test (OGTT) at day 8 in 60% pancreatectomized rats. The format is in vivo, Sprague-Dawley rats. Conditions: 20 mg/kg p.o. x2, day 4 to 8.
Experiment [3] relates to remnant and regenerated pancreatic tissue (beta cells). Put plainly: Pancreatic tissue regeneration, BrdU and insulin immunohistochemistry after 60% pancreatectomy. The conditions noted are these: 20 mg/kg p.o. x2, day 4 to 8. It counts as in vivo, Sprague-Dawley rats. More on the design: key to Amount of regenerated tissue: The amount of regenerated tissue was scored on the following range: −, (+), +, ++, +++; The amount of regenerated tissue was scored on the following range: −, (+), +, ++, +++; The amount of regenerated tissue was scored on the following range: −, (+), +, ++, +++; The amount of regenerated tissue was scored on the following range: −, (+), +, ++, +++; The amount of regenerated tissue was scored on the following range: −, (+), +, ++, +++. The procedure: A 60% pancreatectomy was performed on a total of 12 male Sprague-Dawley rats. Vehicle and the DPP-IV inhibitor Val-Pyr was administered to 6 of these from day 4 to 8 in a dose of 20 mg/kg p.o. x2, while the remaining 6 rats were treated with vehicle alone.
The proliferation of beta cells was measured as incorporation of the thymidine analogue 5-bromo-2-deoxyuridine (BrdU) into DNA in insulin-positive cells. 8 days after the 60% pancreatectomy, 100 mg/kg BrdU was administered i.p. and 4 hours later the area containing remnant and regenerated pancreatic tissue was removed and processed for immunohistochemistry. Three adjacent sections from each animal were stained for insulin and BrdU. The amount of regenerated tissue was scored on the following range: −, (+), +, ++, +++. The location of BrDU was examined in regenerated pancreatic (reg) and exocrine (ex) tissue. Insulin staining was scored as weak (W), normal (N), and in regenerated tissue (+R).

Where “and” joins values, the source holds several entries; their conditions need not be identical. Equal entries are not always repeated. Ends that are not written are not given here.

As to “GLP-1: insulinotropic hormone Glucagon like peptide-1 (HAEGTFTSDVSSYLEGQAAKEFIAWLVKGR; ends and bridges not checked; UniProt P01275 98-127, looked up)”, in experiment [1], the “Number of labelled (BrdU) beta cells” value is given as “increase the number of labelled beta cells”.

For the compound `CC(C)[C@H](N)C(=O)N1CCCC1` [Val-Pyr], in experiment [2], the “Glucose excursion AUC after OGTT” value was ~50 % of vehicle. Besides, the “Animals with insulin expressed in islets located in the regenerating pancreatic tissue” value in experiment [3] (vehicle alone 1 out of 6) was 5 out of 6. The “Amount of regenerated tissue” value in experiment [3] (per animal, tissue removed 8 days after 60% pancreatectomy, 20 mg/kg) was “+ (5×) and ++”.

These data come from US7064145B2, “Inhibition of beta cell degeneration” (Novo Nordisk A/S, priority 2000, dated 2006).
